Consider 4 molecules from PMC7649969, “Pyrazolyl-pyrimidones inhibit the function of human solute carrier protein SLC11A2 (hDMT1) by metal chelation” (RSC Medicinal Chemistry, 2020).

Read-outs that look alike come from different tables or passages of the source.

For one data set, the target named is T1, hDMT1 (Homo sapiens, UniProt P49281).
T1 sequence (P49281 1-568): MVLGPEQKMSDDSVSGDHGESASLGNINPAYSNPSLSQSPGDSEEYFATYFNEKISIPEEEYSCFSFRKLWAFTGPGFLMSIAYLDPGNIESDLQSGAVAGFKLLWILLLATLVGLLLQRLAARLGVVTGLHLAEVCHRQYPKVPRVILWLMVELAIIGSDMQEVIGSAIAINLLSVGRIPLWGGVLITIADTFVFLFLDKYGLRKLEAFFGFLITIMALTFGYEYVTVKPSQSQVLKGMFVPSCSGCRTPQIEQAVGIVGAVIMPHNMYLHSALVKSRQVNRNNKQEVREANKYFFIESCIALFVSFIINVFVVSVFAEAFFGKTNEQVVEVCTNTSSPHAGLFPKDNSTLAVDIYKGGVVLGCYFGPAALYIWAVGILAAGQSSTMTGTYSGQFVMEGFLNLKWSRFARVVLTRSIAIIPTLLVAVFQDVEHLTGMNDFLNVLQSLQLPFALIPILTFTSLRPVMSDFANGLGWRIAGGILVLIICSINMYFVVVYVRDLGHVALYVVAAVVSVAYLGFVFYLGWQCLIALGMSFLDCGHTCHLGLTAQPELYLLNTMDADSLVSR
Kind of data set: 55Fe2+ uptake in Xenopus laevis oocytes overexpressing hDMT1. The format is cell-based. Details: DsRED; expressed in transfected cells; host or cells: HEK293T (ATCC CRL-3216), transient transfection with Lipofectamine 2000. The settings on record: compound 10 μM, 55Fe2+ 20 μM. As for the experimental part:
Fig. 3 Characterization of Fe^2+ transport inhibition by 1 and 13 in X. laevis oocytes (collected from frogs under license number BE60/18 conceded by the Veterinärdienst des Kantons BE, Sekretariat Tierversuche). (a) Upper panel: Average ^55Fe^2+-uptake (20 μM) by hDMT1-expressing and non-injected oocytes in the absence and the presence of the indicated compounds (10 μM). Data was normalized to ^55Fe^2+-uptake (pmol min^–1) in the absence of compounds represented as mean ± SD (16–29 oocytes). Lower panel: Net uptake of ^55Fe^2+ (20 μM) by hDMT1 in the absence and the presence of the indicated compounds (10 μM). For each batch of oocytes, uptake values were corrected for unspecific iron uptake in non-injected oocytes. Data were normalized to the mean iron uptake by hDMT1 WT (pmol min^–1) and represented as mean ± SD (14–34 oocytes). (b and c) Electrophysiology. […] For each trace, recorded currents were corrected for the background currents observed without substrate. (b) Representative traces recorded with hDMT1 injected oocytes (upper panel) and non-injected oocytes (lower panel). […] Statistical differences were assessed using T-test or Mann–Whitney U test (Fe^2+-uptake by hDMT1 WT vs. non-injected oocytes or vs. compound); p > 0.05 = ns; p < 0.001 = ***. […]

The nature of data set [1]: acid-base titration with NaOH. The settings on record: Milli-Q water with 10% DMSO, ~2 mM compound. The format is physicochemical. As for the experimental part:
Fig. 6 (a) Acid–base titration of 3, 5, 13 and neutral and basic forms of 3, 5, 13. (20 μmol of compound in 10 mL (10% DMSO, ∼2 mM), 3 and 5 were acidified with HCl (50 μmol)). (b) Acid-base equilibria for inhibitors 3, 5 and 13 highlighting potentially metal chelating nitrogen atoms in red. (c) TMAP of our inhibitors combined with 169 pyrazolyl-pyrimidones and 1717 pyrazolyl-pyridines found in ChEMBL, color coded by source: cyan = pyrazolyl-pyridines from ChEMBL, blue = pyrazolyl-pyrimidones from ChEMBL, red = this work. Insert: Close-up view around pyrazolyl-pyrimidones color-coded by target class: red = transporter, cyan = enzyme, magenta = unclassified protein, grey = unclassified target. The interactive TMAP including further color-codes (target classes, QED, etc.) is accessible at:; http://tm.gdb.tools/dmt1_inhibitors/pyrimidones_pyridines/ […]
Milli-Q water, 1 mL DMSO and 0.5 mL HCl 0.1 M (Final concentration of 2 mM). Compound
13 (HCl salt, 200 µL, 0.1 M in DMSO) was dissolved in 0.8 mL DMSO and […] Milli-Q
water. Then, a solution of 0.1 M NaOH was added by steps of 2 µL with a Dosimat plus
(Metrohm, Zofingen, Switzerland) and pH was measured using a 692 pH/ion meter (Metrohm).

Consider `N=C(N)SCc1cccc2c1oc1c(CSC(=N)N)cccc12` [Compound 1, reference compound], for which the “inhibition of radioactive iron uptake in oocytes” value at hDMT1 is “totally inhibited”.
Regarding `Cc1cc(O)nc(-n2nc(C)cc2C)n1` [Compound 5], the pKa in data set [1] (read-out: pKa1) is 3.6; in data set [1] (read-out: pKa2), 6.5.
As a reminder, the inhibition is the share of the control response that was lost under treatment. In the case of `Cc1cc(=O)[nH]c(-n2nc3c(c2C)CCCC3)n1` [Compound 13], the pKa came out at 3.3 in data set [1] (read-out: pKa1) and 7 in data set [1] (read-out: pKa2). Further, the inhibition at 10 µM on hDMT1 (read-out: inhibition of radioactive iron uptake in oocytes) turned out to be 50%.
As to `Cc1nn(-c2ccccn2)c(O)c1C(=O)Nc1cccc(C(F)(F)F)c1` [Compound 3, reference compound], the pKa amounted to 3.3 in data set [1] (read-out: pKa1) and 6.7 in data set [1] (read-out: pKa2).
